# Biological target: T1, human vasopressin V1b receptor (Homo sapiens, UniProt P47901)
# T1 construct: expressed in transfected cells; host or cells: CHO-K1 (cell line hV1b-3H2_CHO), membrane preparation
# T1 sequence (P47901 1-424): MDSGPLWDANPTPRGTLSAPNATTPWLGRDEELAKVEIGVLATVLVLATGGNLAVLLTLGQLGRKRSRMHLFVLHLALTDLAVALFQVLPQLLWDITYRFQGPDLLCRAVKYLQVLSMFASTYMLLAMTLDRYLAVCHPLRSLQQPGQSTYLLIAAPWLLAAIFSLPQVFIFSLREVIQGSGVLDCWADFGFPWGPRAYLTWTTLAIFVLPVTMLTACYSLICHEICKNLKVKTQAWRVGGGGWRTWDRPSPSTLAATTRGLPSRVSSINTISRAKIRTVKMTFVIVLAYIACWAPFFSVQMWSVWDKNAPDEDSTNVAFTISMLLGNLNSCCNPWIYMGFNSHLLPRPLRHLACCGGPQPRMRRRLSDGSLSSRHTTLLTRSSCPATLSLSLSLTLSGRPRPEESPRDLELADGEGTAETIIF
# Experiment: Vasopressin V1b receptor binding assay
# Conditions: membranes from CHO-K1 cells with stably expressed human V1b receptors; displacement of 1.5 nM 3H-AVP; read-out: V1b receptor affinity (affinity constant Ki)
# In short: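 Ki values come from nonlinear regression of triplicate scintillation counts after filtration. Test compound (2% DMSO in the mixture) and radioligand were incubated 60 min at room temperature with human V1b membranes in pH 7.4 Tris buffer with 10 mM MgCl2 and 0.1% BSA. Nonspecific binding was set with 1 uM AVP.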
row,Ki,SMILES
1,500 to 10000 nM,"COc1ccc(S(=O)(=O)n2c(=O)n(C(C(=O)N3CCCCC3)c3ccccc3)c3cc(Cl)ccc32)cc1 (centres unmarked) [Example 101, 5-Chloro-1-(4-methoxybenzenesulfonyl)-3-(2-oxo-1-phenyl-2-piperidin-1-ylethyl)-1,3-dihydrobenzimidazol-2-one]"
2,500 to 10000 nM,"COc1ccc(S(=O)(=O)n2c(=O)n(C(C(=O)N3CCN(C4CCN(C)CC4)CC3)c3ccccc3OC)c3cc(Cl)ccc32)cc1 (centres unmarked) [Example 9, 5-Chloro-1-(4-methoxybenzenesulfonyl)-3-{1-(2-methoxyphenyl)-2-[4-(1-methylpiperidin-4-yl)piperazin-1-yl]-2-oxoethyl}-1,3-dihydrobenzimidazol-2-one]"
3,< 100 nM,"COc1ccc(S(=O)(=O)n2c(=O)n(C(C(=O)N3CC[C@H](N4CCN(C)CC4)C3)c3ccccc3)c3cc(Cl)ccc32)cc1 (stereo partly drawn) [Example 153, 5-Chloro-1-(4-methoxybenzenesulfonyl)-3-{2-[(S)-3-(4-methylpiperazin-1-yl)pyrrolidin-1-yl]-2-oxo-1-phenylethyl}-1,3-dihydrobenzimidazol-2-one]"
4,100 to 500 nM,"COc1cccc(C(C(=O)N2CCN(C3CCN(C)CC3)CC2)n2c(=O)n(S(=O)(=O)c3ccc(C#N)cc3)c3ccc(Cl)cc32)c1 (centres unmarked) [Example 22, 4-(5-Chloro-3-{1-(3-methoxyphenyl)-2-[4-(1-methylpiperidin-4-yl)piperazin-1-yl]-2-oxoethyl}-2-oxo-2,3-dihydrobenzimidazol-1-sulfonyl)benzonitrile]"
5,< 100 nM,"COc1ccc(S(=O)(=O)n2c(=O)n(C(C(=O)N3CC[C@H](Nc4ccncc4)C3)c3ccccc3)c3cc(C#N)ccc32)cc1 (stereo partly drawn) [Example 253, 1-(4-Methoxy-benzenesulfonyl)-2-oxo-3-{2-oxo-1-phenyl-2-[(S)-3-(pyridine-4-ylamino)-pyrrolidin-1-yl]-ethyl}-2,3-dihydro-1H-benzoimidazole-5-carbonitrile; compound with trifluoroacetic acid]"
6,500 to 10000 nM,"COc1ccc(S(=O)(=O)n2c(=O)n(CC(=O)N3CCN(C)CC3)c3cc(Cl)ccc32)cc1 [Example 85, 5-Chloro-1-(4-methoxybenzenesulfonyl)-3-[2-(4-methylpiperazin-1-yl)-2-oxoethyl]-1,3-dihydrobenzimidazol-2-one]"
7,100 to 500 nM,"COc1ccc(S(=O)(=O)n2c(=O)n(CC(=O)N3CCN(c4ccncc4)CC3)c3cc(Cl)ccc32)c(OC)c1 [Example 25, 5-Chloro-1-(2,4-dimethoxybenzenesulfonyl)-3-[2-oxo-2-(4-pyridin-4-ylpiperazin-1-yl)-ethyl]-1,3-dihydrobenzimidazol-2-one]"
8,500 to 10000 nM,"COc1ccc(S(=O)(=O)n2c(=O)n(C(C(=O)N3CCC3)c3ccccc3)c3cc(Cl)ccc32)cc1 (centres unmarked) [Example 84, 3-(2-Azetidin-1-yl-2-oxo-1-phenylethyl)-5-chloro-1-(4-methoxybenzenesulfonyl)-1,3-dihydrobenzimidazol-2-one]"
9,500 to 10000 nM,"COc1ccccc1C(C(=O)N1CCN(c2ccncc2)CC1)n1c(=O)n(S(=O)(=O)c2cccc3cccnc23)c2ccc(Cl)cc21 (centres unmarked) [Example 13, 5-Chloro-3-[1-(2-methoxyphenyl)-2-oxo-2-(4-pyridin-4-ylpiperazin-1-yl)-ethyl]-1-(quinoline-8-sulfonyl)-1,3-dihydrobenzimidazol-2-one]"
10,100 to 500 nM,"CCCN1CCN(C2CN(C(=O)C(c3ccccc3)n3c(=O)n(S(=O)(=O)c4ccc(OC)cc4)c4ccc(Cl)cc43)C2)CC1 (centres unmarked) [Example 154, 5-Chloro-1-(4-methoxybenzenesulfonyl)-3-{2-oxo-1-phenyl-2-[3-(4-propylpiperazin-1-yl)azetidin-1-yl]ethyl}-1,3-dihydrobenzimidazol-2-one]"
11,< 100 nM,"CCCN1CCN([C@H]2CCN(C(=O)C(c3ccccc3)n3c(=O)n(S(=O)(=O)c4ccc(OC)cc4)c4ccc(Cl)cc43)C2)CC1 (stereo partly drawn) [Example 158, 5-Chloro-1-(4-methoxybenzenesulfonyl)-3-{2-oxo-1-phenyl-2-[(S)-3-(4-propylpiperazin-1-yl)pyrrolidin-1-yl]ethyl}-1,3-dihydrobenzimidazol-2-one]"
12,< 100 nM,"N#Cc1ccc(S(=O)(=O)n2c(=O)n(C(C(=O)N3CCN(c4ccncc4)CC3)c3ccccc3)c3cc(Cl)ccc32)cc1 (centres unmarked) [Example 57, 4-{5-Chloro-2-oxo-3-[2-oxo-1-phenyl-2-(4-pyridin-4-ylpiperazin-1-yl)-ethyl]-2,3-dihydrobenzimidazole-1-sulfonyl}-benzonitrile]"

# More lines, now with the values behind:
row,SMILES,Ki
1,"COc1ccc(S(=O)(=O)n2c(=O)n(C(C(=O)N3CC[C@H](CN(C)C4CCN(C)CC4)C3)c3ccccc3)c3cc(C#N)ccc32)cc1 (stereo partly drawn) [Example 256, 1-(4-Methoxy-benzenesulfonyl)-3-[2-((R)-3-{[methyl-(1-methyl-piperidin-4-yl)-amino]-methyl}-pyrrolidin-1-yl)-2-oxo-1-phenyl-ethyl]-2-oxo-2,3-dihydro-1H-benzoimidazole-5-carbonitrile; compound with trifluoroacetic acid]",< 100 nM
2,"COc1ccc(S(=O)(=O)n2c(=O)n(C(C(=O)N3CC[C@H](NC(=O)C4CCN(C)CC4)C3)c3ccccc3)c3cc(C#N)ccc32)cc1 (stereo partly drawn) [Example 252, 1-Methyl-piperidine-4-carboxylic acid ((S)-1-{2-[6-cyano-3-(4-methoxybenzenesulfonyl)-2-oxo-2,3-dihydro-benzoimidazol-1-yl]-2-phenyl-acetyl}-pyrrolidin-3-yl)-amide; compound with trifluoroacetic acid]",100 to 500 nM
3,"CCCN1CCN([C@H]2CCN(C(=O)C(c3ccccc3)n3c(=O)n(S(=O)(=O)c4ccc(OCC(F)(F)F)cc4)c4ccc(C#N)cc43)C2)CC1 (stereo partly drawn) [Example 234, 2-oxo-3-{2-oxo-1-phenyl-2-[(S)-3-(4-propyl-piperazin-1-yl)-pyrrolidin-1-yl]-ethyl}1-[4-(2,2,2-trifluoro-ethoxy)-benzenesulfonyl]-2,3-dihydro-1H-benzoimidazole-5-carbonitrile]",100 to 500 nM
4,"CCN(CC)CCN(C)C(=O)C(c1ccccc1)n1c(=O)n(S(=O)(=O)c2ccc(OC)cc2)c2ccc(Cl)cc21 (centres unmarked) [Example 119, 2-[6-Chloro-3-(4-methoxybenzenesulfonyl)-2-oxo-2,3-dihydrobenzimidazol-1-yl]-N-(2-diethylaminoethyl)-N-methyl-2-phenylacetamide]",100 to 500 nM
5,"COc1ccc(S(=O)(=O)n2c(=O)n(C(C(=O)N3CC[C@H](N(C)C4CCN(C)CC4)C3)c3ccccc3)c3cc(C#N)ccc32)cc1 (stereo partly drawn) [Example 211, 1-(4-Methoxybenzenesulfonyl)-3-(2-{(S)-3-[methyl-(1-methylpiperidin-4-yl)-amino]pyrrolidin-1-yl}-2-oxo-1-phenylethyl)-2-oxo-2,3-dihydro-1H-benzimidazole-5-carbonitrile]",< 100 nM
6,"COc1ccc(S(=O)(=O)n2c(=O)n(C(C(=O)N3CC[C@H](NC(=O)OC(C)(C)C)C3)c3ccccc3)c3cc(C#N)ccc32)cc1 (stereo partly drawn) [Example 216, ((S)-1-{2-[6-Cyano-3-(4-methoxy-benzenesulfonyl)-2-oxo-2,3-dihydrobenzoimidazol-1-yl]-2-phenyl-acetyl}-pyrrolidin-3-yl)-carbamic acid tert-butyl ester]",500 to 10000 nM
7,"COc1ccc(S(=O)(=O)n2c(=O)n(C(C(=O)N3CC[C@H](N4CCNCC4)C3)c3ccccc3)c3cc(C#N)ccc32)cc1 (stereo partly drawn) [Example 150, 1-(4-Methoxybenzenesulfonyl)-2-oxo-3-[2-oxo-1-phenyl-2-((S)-3-piperazin-1-ylpyrrolidin-1-yl)ethyl]-2,3-dihydro-1H-benzimidazole-5-carbonitrile]",< 100 nM
8,"COc1ccc(S(=O)(=O)n2c(=O)n(C(C(=O)Nc3ccccc3)c3ccccc3)c3cc(Cl)ccc32)cc1 (centres unmarked) [Example 103, 2-[6-Chloro-3-(4-methoxybenzenesulfonyl)-2-oxo-2,3-dihydrobenzimidazol-1-yl]-2,N-diphenylacetamide]",500 to 10000 nM
9,"COc1ccc(S(=O)(=O)n2c(=O)n(C(C(=O)N(C)CCc3ccccn3)c3ccccc3)c3cc(Cl)ccc32)cc1 (centres unmarked) [Example 120, 2-[6-Chloro-3-(4-methoxybenzenesulfonyl)-2-oxo-2,3-dihydrobenzimidazol-1-yl]-N-methyl-2-phenyl-N-(2-pyridin-2-ylethyl)acetamide]",500 to 10000 nM
10,"CCCN1CCN([C@H]2CCN(C(=O)C(c3ccccc3)n3c(=O)n(S(=O)(=O)c4ccc(OCCF)cc4)c4ccc(C#N)cc43)C2)CC1 (stereo partly drawn) [Example 232, 1-[4-(2-Fluoro-ethoxy)-benzenesulfonyl]-2-oxo-3-{2-oxo-1-phenyl-2-[(S)-3-(4-propyl-piperazin-1-yl)-pyrrolidin-1-yl]-ethyl}-2,3-dihydro-1H-benzoimidazole-5-carbonitrile]",100 to 500 nM
11,"COc1ccc(S(=O)(=O)n2c(=O)n(C(C(=O)N3CC[C@H](CNC4CCN(C)CC4)C3)c3ccccc3)c3cc(C#N)ccc32)cc1 (stereo partly drawn) [Example 255, 1-(4-Methoxy-benzenesulfonyl)-3-(2-{(R)-3-[(1-methyl-piperidin-4-ylamino)-methyl]-pyrrolidin-1-yl}-2-oxo-1-phenyl-ethyl)-2-oxo-2,3-dihydro-1H-benzoimidazole-5-carbonitrile; compound with trifluoroacetic acid]",< 100 nM

# From patent publication US8791148B2, “Substituted benzimidazolone derivatives, medicaments comprising them and their use” (AbbVie Deutschland GmbH & Co. KG, priority 2006, dated 2014)
